Reference: patent US6569839B1, “Fast-acting pharmaceutical compositions and methods of use” (priority 1998, dated 2003)

Key:
[1] = 1 gm interoperatively; total hip or knee joint replacements; 95% without steroid; cited from earlier work
[2] = 50 to 100 mg I.V. over a 40 to 120 second period; cited from earlier work
[3] = I.V. every 90 minutes; cited from earlier work
[4] = in vivo
[5] = test system: gram negative organisms and many gram positive organisms which include staphylococcus aureus and staphylococcus epidermidis; details: cited from earlier work
[6] = 0.5%, continuous perineural infusion around the major nerve; cited from earlier work
[7] = 1000 units of Heparin with 1 gm of Cefazolin; cited from earlier work
[8] = Absorption of antibiotic from the treated wound; assay type: in vivo; details: administered to the wound over 24 hour period
Procedure: In an embodiment of the present invention, a medicinal solution comprising Chloramphenicol can be prepared such that the patient receives only about 1-½ gm in a 24 hour period. Thus, if 100% was absorbed during the 24 hour period while treating a wound as, for example, following a total knee arthroplasty, the administered 1 ½ gm over a 24 hour is a safe dose, in fact, for three days. Since, however, only approximately 40% of the antibiotic is typically absorbed, the amount that is available to the bone marrow is, thus, very small. For patients with blood dyscrasias a dose of about 2 gm of Cephalosporin or a dose of about 1 gm Septaz can be used in place of a dose of about 1 g of Chloramphenicol for the 24 hour period.

[9] = test system: common bone and joint infections; details: cited from earlier work

In the case of C[C@]12CCC(=O)C=C1CC[C@@H]1[C@@H]2[C@@H](O)C[C@@]2(C)[C@H]1CC[C@]2(O)C(=O)COC(=O)CCC(=O)O [Solu-Cortef, Hydrocortisone sodium succinate], the “patients who experienced pain with interoperative steroid administration” value [1] is given as 33%.

For CCN(CC)CC(=O)Nc1c(C)cccc1C [Lidocaine], the ill effects [2] is given as “without ill effects” and the maximum suggested dose [3] is given as “about 300 mg”.

With CCCCN1CCCCC1C(=O)Nc1c(C)cccc1C (centres unmarked) [Marcaine] the “complications if dosage is not strictly monitored” value [4] was “critical complications can occur”.

In the case of C[C@H]1C[C@@H]2[C@H]([C@@H](O)C[C@@]3(C)[C@H]2CC[C@]3(O)C(=O)COC(=O)CCC(=O)O)[C@@]2(C)C=CC(=O)C=C12 [Solumedrol], the “patients who experienced pain with interoperative steroid administration” value [1] is listed as 33%.

In the case of CC(C)(O/N=C(\C(=O)N[C@@H]1C(=O)N2C(C(=O)[O-])=C(C[n+]3ccccc3)CS[C@H]12)c1csc(N)n1)C(=O)O [Ceftazidime], the Bacterial coverage [5] is listed as “very good”.

In the case of CCCCN1CCCCC1C(=O)Nc1c(C)cccc1C (centres unmarked) [Bupicocaine], the relief of pain [6] is listed as “good relief of pain”.

In the case of Cc1nnc(SCC2=C(C(=O)O)N3C(=O)[C@@H](NC(=O)Cn4cnnn4)[C@H]3SC2)s1 [Cefazolin], the time compatible [7] is given as 24 h.

In the case of O=C(N[C@H](CO)[C@H](O)c1ccc([N+](=O)[O-])cc1)C(Cl)Cl [Chloramphenicol], the “fraction of the antibiotic typically absorbed” value [8] is given as “approximately 40%”, the “effectiveness as broad-spectrum antibiotic” value ([9]; against the common bone and joint infections) is given as “very effective” and the reported blood toxicity ([9]; in vivo) is given as “aplastic anemia and other blood problems”.
